Laboratory results reported in patent publication EP0386044B1, “HYPOGLYCAEMIC PEPTIDES” (MONASH UNIVERSITY, priority 1987, dated 1997).
Where no end group is shown, it is not given here. [ ]: non-standard residue; d: D form.

What was measured:
mice = assay: In vivo testing for insulin-potentiating activity on untrained and trained mice; conditions: untrained female mice and untrained or trained male mice, 2.3 or 2.4 mg/kg peptide in 0.2 ml saline, insulin injected at t0; Figures 12 and 13
Protocol: The dotted lines represent control animals (injected with 0.2 ml of saline) in each case. The unbroken lines represent test animals (injected with 2.4 mg/Kg of peptide in 0.2 ml of saline). Insulin was injected at to. • Figure 13 represents in vivo testing of peptides for insulin-potentiating activity on "untrained" and "trained" male mice. The dotted line represents the mean fall in blood glucose for control animals (injected with 0.2 ml of saline). The unbroken line represents the mean fall in blood glucose for test animals, injected with 2.3 mg/kg of peptide in 0.2 ml of saline, except for (a), in which the dose was 2.4 mg/kg. • (a) Pep 6-13 (Gln^11Asp^12), "untrained" • (b) Pep 6-13 (Gln^11Asp^12), "trained" • (c) Pep 6-13 (Asn^11Asp^12), "trained" • (d) Pep 6-13 (Asp^12), "trained" Insulin was injected at to.
The dose of Pep (6-13) was 200 µg/Kg body weight. Similarly, various forms of the peptide according to the invention in its β imide form potentiate the hypoglycaemic effect of insulin on "untrained" male and female mice. The effect on trained male mice trained to feed on schedule as described above was less striking, but still significant in some cases.

rats = assay: Decrease in blood glucose level in rats following intravenous injection of peptides; type: in vivo; conditions: for hypoglycaemic effect (change in blood glucose level), in words: injection of peptide, Table 2 and Figure 9; for Decrease in blood from basal / Difference from control mean: intravenous injection, peptide 0.5 µmol/100g; for Decrease in blood from basal: change of blood glucose from basal level (4.0 - 4.4 mmol glucose/l) at time 0, control 1.05; for Difference from control mean: difference of blood glucose decrease from control mean (1.05)
Excerpt: Values are changes (means ± SEM) of blood glucose from the basal level (4.0 - 4.4 mmol glucose/l) at time 0. Differences between the control and test groups were statistically evaluated according to Student's t-test. N.S. indicates 2P > 0.05.
Similar results are illustrated graphically in Figure 9.

[1] = tested on: cultured muscle cells (L6 rat skeletal muscle cell line); assay: Cultured cell assay for stimulation of glucose uptake; type: cell-based; conditions: peptide 10µg/ml
Excerpt: In these assays collagenase-dispersed rat adipocytes, cultured muscle cells (L6 rat skeletal muscle cell line) and hemidiaphragm preparations were employed.
The effect of the β imide form peptides on glucose metabolism is further shown by their ability to stimulate glucose uptake and glycogen synthesis by cultured muscle cells and isolated rat hemidiaphragms.

L-α-Asp at position 11 in hGH[6-13]: inactive control peptide, hGH[6-13] with L-α-Asp at position 11 and Asp at 12 (LSRLFDDA; UniProt P01241 32-39, looked up, variant N12D)
insulin-potentiating activity (mice): inactive

Pep (6-12): synthetic peptide corresponding to residues 6-12 of human growth hormone, α form (LSRLFDN; UniProt P01241 32-38, looked up, fragment)
hypoglycaemic effect (change in blood glucose level), in words (rats): active only in the β imide form
Decrease in blood from basal (rats): 1.00
Difference from control mean (rats): -0.05

Pep (6-13) Gly^10 α form: variant Gly^10 of Pep (6-13), α form (LSRLGDNA; UniProt P01241 32-39, looked up, variant F10G)
hypoglycaemic effect (change in blood glucose level), in words (rats): inactive

Pep (6-15): synthetic peptide corresponding to residues 6-15 of human growth hormone, α form (LSRLFDNAML; UniProt P01241 32-41, looked up, fragment)
hypoglycaemic effect (change in blood glucose level), in words (rats): active only in the β imide form
Decrease in blood from basal (rats): 1.26
Difference from control mean (rats): 0.21

LSRL[dF]DNA [Pep P057]
Rate of Increase from Basal [1]: 2.0 µmol glucose/hour

Pep (6-13) Ala^11 α form: variant Ala^11 of Pep (6-13), α form (LSRLFANA; UniProt P01241 32-39, looked up, variant D11A)
hypoglycaemic effect (change in blood glucose level), in words (rats): inactive

Pep (6-13) Gly^10Pro^11 α form: variant Gly^10Pro^11 of Pep (6-13), α form (LSRLGPNA; UniProt P01241 32-39, looked up, variant F10G D11P)
hypoglycaemic effect (change in blood glucose level), in words (rats): inactive

Pep (9-13): synthetic peptide corresponding to residues 9-13 of human growth hormone, α form (LFDNA; UniProt P01241 35-39, looked up, fragment)
hypoglycaemic effect (change in blood glucose level), in words (rats): neither the α form nor the β imide form was active
Decrease in blood from basal (rats): 1.12
Difference from control mean (rats): 0.07

Pep (6-13) Tyr^10 α form: variant Tyr^10 of Pep (6-13), α form (LSRLYDNA; UniProt P01241 32-39, looked up, variant F10Y)
hypoglycaemic effect (change in blood glucose level), in words (rats): inactive

Pep (6-13) Pro^11 α form: variant Pro^11 of Pep (6-13), α form (LSRLFPNA; UniProt P01241 32-39, looked up, variant D11P)
hypoglycaemic effect (change in blood glucose level), in words (rats): inactive
